Values quoted from earlier work, collected in paper PMC9669016, “First-in-human phase Ia study of the PI3Kα inhibitor CYH33 in patients with solid tumors” (Nature Communications, 2022).
Like-named read-outs stand apart in the source and are kept apart here.

How the values were obtained:
[1] = test system: KYSE410 human esophageal cancer xenograft; design: method as in Investigator's Brochure (IB) 12; conditions: ref Investigator's Brochure (IB) 12, cited from earlier work; for inhibition rate (tumor growth): multiple doses
[2] = test system: phosphorylation of Akt and rpS6; design: method as in Investigator's Brochure (IB) 12; conditions: ref Investigator's Brochure (IB) 12, cited from earlier work
CYP2C19 = test system: CYP2C19; design: method as in Investigator's Brochure (IB) 12; conditions: up to 100 µM; ref Investigator's Brochure (IB) 12; cited from earlier work
CYP2C9 = test system: CYP2C9; design: method as in Investigator's Brochure (IB) 12; conditions: up to 100 µM; ref Investigator's Brochure (IB) 12; cited from earlier work
[3] = design: method as in Investigator's Brochure (IB) 12; conditions: human, without concentration dependency; ref Investigator's Brochure (IB) 12; cited from earlier work
mice bone marrow = test system: mice bone marrow; design: method as in Investigator's Brochure (IB) 12; conditions: ref Investigator's Brochure (IB) 12; cited from earlier work

SMILES: COC(=O)Nc1cc(C(F)(F)F)c(-c2nc(N3CCOCC3)c3cc(CN4CCN(S(C)(=O)=O)CC4)cn3n2)cn1 [CYH33, methyl (5-(6-((4-(methylsulfonyl)piperazin-1-yl)methyl)−4-morpholinopyrrolo[2,1-f][1,2,4]triazin-2-yl)−4-(trifluoromethyl)pyridin-2-yl)carbamate]
- T/C ratio ([1]; 12.5 mg/kg oral for 21 days): approximately 30%
- inhibition rate (tumor growth) ([1]; 12.5 mg/kg): > 67%
- inhibition rate (tumor growth) ([1]; 25 mg/kg): > 90%
- inhibition rate (tumor growth) ([1]; 50 mg/kg): > 95%
- time of peak concentration in tumor tissues ([2]; single dose 12.5, 25, 50 mg/kg): 2 h
- phosphorylation of Akt and rpS6 in tumor tissues ([2]; single dose, at 0.25 h (25, 50 mg/kg) or 0.5 h (12.5 mg/kg), recovered after 8 h): down-regulate
- inhibition of CYP2C19 (CYP2C19): did not inhibit
- inhibition of CYP2C9 (CYP2C9): did not inhibit
- plasma protein binding (PPB) [3]: 94.9%
- mice bone marrow micronucleus test result (mice bone marrow): negative
